Experimental data from patent publication US20080090898A1, “Boosting immunity” (Mars, Incorporated, priority 2006, published 2008).

Tests used:
CD8 T cells = test: Cytokine production of isolated CD8 T cells activated with anti CD3; type: cell-based, human
Procedure: CD4+ and CD8+ cells were isolated by positive selection. Briefly, 10×10^7 PBMC cells in 90 μl were incubated with 10 μl of either anti-CD4+ or CD8+ magnetic reagent and incubated at 4° C. for a half hour. The cells were then separated by magnetic cell sorting using a Miltenyi Biotec system, were counted and diluted to a concentration of 2×10^6 cells/ml with BioWhittaker X Vivo. Autologous plasma from the subject was added to a concentration of 1% by volume. A 96 well plate was treated with antihuman-CD3 in PBS (BD Biosciences) at a concentration of 0.5 μg/ml for 4 hours. After the 4 hour incubation, the plate was washed 4 times with PBS. Purified CD4+ or CD8+ cells were added to each well along with various concentrations of the individual test compounds or controls. The cultures were then incubated at 37° C. for 1 day and supernatants were harvested and stored at −80° C. Cytokine profiles were determined using a BD Cytometric Bead Array Human Inflammation KIT (BD Biosciences, San Diego, Calif.). […] Wash buffer (300 μl) was added and samples immediately analyzed on the flow cytometer after vortexing. Known positive and negative samples and including a standard curve were included with each assay and all samples analyzed in triplicate. […] Cells were resuspended in 1.0 ml PBS/BSA and analyzed on the flow cytometer.

CD4 T cells = test: Cytokine production of isolated CD4 T cells activated with anti CD3; type: cell-based, human
Procedure: CD4+ and CD8+ cells were isolated by positive selection. Briefly, 10×10^7 PBMC cells in 90 μl were incubated with 10 μl of either anti-CD4+ or CD8+ magnetic reagent and incubated at 4° C. for a half hour. The cells were then separated by magnetic cell sorting using a Miltenyi Biotec system, were counted and diluted to a concentration of 2×10^6 cells/ml with BioWhittaker X Vivo. Autologous plasma from the subject was added to a concentration of 1% by volume. A 96 well plate was treated with antihuman-CD3 in PBS (BD Biosciences) at a concentration of 0.5 μg/ml for 4 hours. After the 4 hour incubation, the plate was washed 4 times with PBS. Purified CD4+ or CD8+ cells were added to each well along with various concentrations of the individual test compounds or controls. The cultures were then incubated at 37° C. for 1 day and supernatants were harvested and stored at −80° C. Cytokine profiles were determined using a BD Cytometric Bead Array Human Inflammation KIT (BD Biosciences, San Diego, Calif.). Briefly, 50 μl of culture supernates and standards were added to 100 μl of capture beads and detection reagent. Tubes were incubated for 3 hours at room temperature, washed with 1 ml of wash buffer and centrifuged prior to collection of the supernate. Wash buffer (300 μl) was added and samples immediately analyzed on the flow cytometer after vortexing. Known positive and negative samples and including a standard curve were included with each assay and all samples analyzed in triplicate. In addition, cultured cells (1×10^6) were washed in PBS with 0.1% bovine serum albumin (PBS/BSA), resuspended in 100 μl PBS/BSA, and incubated with anti-human CD3, CD19, CD69 and CD83 antibody for 1 hour at 4° C. Cells were resuspended in 1.0 ml PBS/BSA and analyzed on the flow cytometer.

## COc1cc([C@H]2Oc3cc(O)cc(O)c3C[C@H]2O)ccc1O [3′-O-methyl-(−)-epicatechin]
CD8 T cells
  IFN-γ amounts over the media controls: significantly higher amounts
CD4 T cells
  IFN-γ levels over media control and (−)-epicatechin treated cells: significantly higher levels
  IL-10 levels over media control and (−)-epicatechin treated cells: significantly higher levels
  TNF-α levels over media control and (−)-epicatechin treated cells: significantly higher levels
